The values that follow come from ChEMBL document CHEMBL5729666, “Substituted [1,2,4]triazolo[4,3-a]pyrazines as modulators of sodium channel activity” (2023).

What is called IC50 is the concentration at which inhibition is half-maximal.

Some results are limits rather than exact numbers.

The data set has as its target T1, Cytochrome P450 1A2 (Homo sapiens, UniProt P05177).
T1 sequence (P05177 whole entry): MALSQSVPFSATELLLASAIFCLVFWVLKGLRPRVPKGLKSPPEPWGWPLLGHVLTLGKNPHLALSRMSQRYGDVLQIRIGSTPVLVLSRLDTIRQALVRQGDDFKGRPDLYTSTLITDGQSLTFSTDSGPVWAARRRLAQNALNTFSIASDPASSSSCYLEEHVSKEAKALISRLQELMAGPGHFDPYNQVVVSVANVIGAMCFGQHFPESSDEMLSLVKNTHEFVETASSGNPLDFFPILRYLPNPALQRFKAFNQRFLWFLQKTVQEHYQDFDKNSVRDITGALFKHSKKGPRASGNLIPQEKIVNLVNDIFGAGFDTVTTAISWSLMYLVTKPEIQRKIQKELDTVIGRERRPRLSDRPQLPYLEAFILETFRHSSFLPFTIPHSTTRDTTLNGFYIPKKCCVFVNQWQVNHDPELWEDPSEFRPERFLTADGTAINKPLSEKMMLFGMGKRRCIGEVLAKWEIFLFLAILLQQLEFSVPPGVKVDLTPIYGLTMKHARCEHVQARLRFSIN
The data set can be described thus: CYP1A2 Inhibition Assay: CYP1A2 Inhibition in Human Liver Microsomes. Pooled human liver microsomes were incubated with individual CYP, CYP1A2, isozyme-specific marker substrate (Phenacetin) in the presence of test compound at various concentrations (0.05, 0.15, 0.5, 1.5, 5, 15, 50 uM). The specific marker metabolites are measured with LC/MS/MS. The remaining enzymatic activities and inhibitory potency IC50 are determined. Procedure: Microsomes are removed out of the −80° C. freezer to thaw on ice and 20 μL of the substrates solution added to the corresponding wells. Then 20 μL PB was added to blank wells and 2 μL of the test compounds and positive control working solution added to the corresponding wells. 2 μL of solvent was added to No Inhibitor wells and Blank wells. Then 158 μL of the HLM working solution was added to all wells of the incubation plate. The plate was pre-warmed for about 10 min using a 37° C. water bath. Then 20 μL of the NADPH cofactor solution was added to all incubation wells, mixed and incubated for 10 minutes at 37° C. water bath. The reaction is terminated by adding 400 μL cold stop solution (200 ng/mL Tolbutamide and 200 ng/mL Labetalol in ACN). The samples were centrifuged at 4000 rpm for 20 minutes to precipitate protein. Finally 200 μL of the supernatant was transferred to 100 μL HPLC water, shaken for 10 min and analyzed by LC/MS/MS.

Turning to `O=C(NNc1cnc(-c2ccc(OC(F)(F)F)cc2)cn1)C1(F)CC1`, the IC50 result is “in the range around 8 µM”.

With `FC(F)(F)Oc1ccc(-c2ccc3nnc(C(F)(F)Cl)n3n2)cc1`, the concentration for half-maximal inhibition (IC50) was < 1 µM.
